Assay results taken from patent US6368788B1 (priority 1987, dated 2002).
Where “and” joins values, the source holds several entries; their conditions need not be identical. Equal values may be shown once. Read-outs that look alike come from different tables or passages of the source.

Legend:
[1] = Patients after radiation and chemotherapy, L-Glu-L-Trp 100 μg daily 10 days; details: human, in vivo
Procedure: A total of 246 patients were eventually entered into studies after receiving radiation and chemotherapy. L-Glu-L-Trp was administered to the patients in single 100 μg daily dose for each of 10 days during the period of chemotherapy. A control group constituted 158 similar patients (following radiation and chemotherapy), and these patients were treated in a conventional manner (i.e., chemotherapy and support therapy). […] Immune parameters were periodically monitored over the next 4-6 months in the patients and decreased levels of lymphocytes or their subpopulations were used as clinical triggers for additional therapeutic intervention with L-Glu-L-Trp.

[2] = DTH sensitivity to tuberculin; assay type: in vivo, guinea pigs
Procedure: In the second study, affects of L-Glu-L-Trp on DTH sensitivity were investigated in guinea pigs sensitized to tuberculin. L-Glu-L-Trp was administered ip at 10 μg/kg or 1000 μg/kg on the day of an intradermal sensitization with tuberculin antigen.

[3] = test system: resident peritoneal macrophages; test: Innate immunity in CBA mice: thymic and spleen mass, splenic lymphocytes, resident peritoneal macrophages; assay type: in vivo; details: for Spleen / Thymus: CBA mice; for NBT Reduction, Induced: macrophages induced with complement opsonized zymosan; for NBT Reduction, Spontaneous / Neutral Red Uptake Absorbance: resident peritoneal macrophages
Chronic prostatitis = assay type: in vivo, human
Text: Thirty four patients (aged 22 to 45 years) with chronic prostatitis were entered into Group 1 of this trial during the acute phase of their disease. Diagnosis was based on medical history, and physical examination of the prostate (palpated through the rectum). Laboratory testing included microscopic examination of prostate gland secretions, spermography and urinalysis. All patients had previously received full courses of unsuccessful therapy with antibacterial agents, and additional individualized therapy including uroantiseptics, spasmolytic, ganglion blockers, novocain paraprostate and presacral blocks, ultrasound, and prostate gland massage. Success of any individualized therapy was only partial and short-term. […]
Peripheral blood samples were collected for laboratory testing 10 days after the last injection of L-Glu-L-Trp. […]

[4] = test system: respiratory viral infections; test: Nose, ear and throat infections (acute respiratory disease); set-up: species or system human; details: in vivo
Procedure: One hundred eighty six subjects (186) with diagnosed acute respiratory disease, including upper airway diseases and viral infections, were treated with L-Glu-L-Trp. A control group consisted of 87 untreated subjects. L-Glu-L-Trp was administered daily im or intranasally at a dosage of 100 μg on each of 3-7 consecutive days. […] Secondary infectious complications were diminished in the treated individuals, and the length of time that medical follow-up was required was also diminished.

influenza = test system: influenza; set-up: species or system human; details: in vivo
[5] = test system: antibody-producing cells in spleen; test: Antibody plaque forming cell response to sheep red blood cells (Jerne); assay type: in vivo, (CBAxC57B1/6) F1 mice; details: for PFC/10^6 splenocytes / PFC/Spleen / Spleen weight/Body weight / Splenocytes per Spleen: s-rbc immunized mice, day 5
Influenza A = details: Combined Therapy: Conventional + L-Glu-L-Trp
Procedure: A clinical trial was conducted in a group of 588 patients between the ages of 17-21 years all having a confirmed infection with Influenza A, (i.e., confirmation by either hemagglutination-inhibition or the presence of specific viral antigens).

[6] = After Combination L-Glu-L-Trp Therapy
[7] = After L-Glu-L-Trp Combination Therapy
[8] = 10 μg/kg ip on day of tuberculin sensitization
[9] = 1000 μg/kg ip on day of tuberculin sensitization
[10] = After L-Glu-L-Trp, pre-treatment value Decreased (n = 14)
[11] = Group 1, After L-Glu-L-Trp, 10 days after the last injection
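Throughout, for ATIII: hospitalized children with severe pneumonia, thrombohemorrhagic syndrome plus secondary immune deficiency, lab values taken before and after treatment versus healthy normal controls, comparison group given antibiotic therapy alone.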
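Throughout, for Clotting time (citrated whole blood-recalcified): hospitalized children with severe pneumonia, thrombohemorrhagic syndrome plus secondary immune deficiency, lab values taken before and after treatment versus healthy normal controls, comparison group given antibiotic therapy alone.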
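Throughout, for Leukocytes: hospitalized children with severe pneumonia, thrombohemorrhagic syndrome plus secondary immune deficiency, lab values taken before and after treatment versus healthy normal controls, comparison group given antibiotic therapy alone.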
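Throughout, for lymphocytes: hospitalized children with severe pneumonia, thrombohemorrhagic syndrome plus secondary immune deficiency, lab values taken before and after treatment versus healthy normal controls, comparison group given antibiotic therapy alone.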

## L-Glu-L-Trp
[6]
  B-Lymphocytes: 0.84 ± 0.06 ×10^9/L
  B-Lymphocytes % Normal Value: (175%)
  IgA: 67 ± 4.8
  IgA % Normal Value: (163%)
  IgG: 138 ± 5.6
  IgG % Normal Value: (97%)
  IgM: 153 ± 6.9
  IgM % Normal Value: (89%)
  Leukocytes: 11.0 ± 0.01 ×10^9/L
  Leukocytes % Normal Value: (98%)
  Lymphocytes: 0.36 ± 0.01 ×10^9/L
  Lymphocytes % Normal Value: (116%)
  T-Lymphocytes: 1.1 ± 0.01 ×10^9/L
  T-Lymphocytes % Normal Value: (167%)
[7]
  ATIII: 85 ± 2.1 % of normal
  Clotting time (citrated whole blood-recalcified): 129 ± 2.3^
  FDP: 96 ± 6.7 µg/mL
  Fibrinogen Concentration: 4.2 ± 0.4 g/L
  Fibrinolytic Activity: 186 ± 11.5 min
  Hagemann factor dependent fibrinolysis: 72 ± 6.8
  Kaolin-Cephalin clotting time: 58 ± 1.2
  Prothrombin time: 22 ± 0.1
  Thrombotest: 33 ± 1.2
  Whole blood clotting time: 465 ± 16.2 s
[1]
  Clinical outcome: decreased incidence and severity of post-operative complications
[2]; [8]
  Mean Skin Test Diameter ± S.D. Day 10: 14.4 ± 1.3 mm
  Mean Skin Test Diameter ± S.D. Day 20: 15.1 ± 1.4 mm
[2]; [9]
  Mean Skin Test Diameter ± S.D. Day 10: 15.2 ± 1.3 mm
  Mean Skin Test Diameter ± S.D. Day 20: 13.9 ± 1.1 mm
[2]; day 10 or day 20
  DTH response to tuberculin antigen: statistically significant increase in the DTH response
[3]; 0.01 mg/kg ip daily 6 days
  B cells Change (% peptide treated/% control): 1.0
  Splenic lymphocytes: B cells (%): 50.8 ± 3.0%
  Splenic lymphocytes: T cells (%): 41.2 ± 2.1 %
  T cells Change (% peptide treated/% control): ↑ 1.1
  Spleen: 69.8 ± 2.6 mg
  Thymus: 14.8 ± 1.6 mg
[3]; 0.01 mg/kg, not statistically different from control
  Increase in neutral red uptake by macrophages: 75%
[3]; 1 mg/kg and 0.01 mg/kg ip, 6 days
  Thymic weight: statistically significant decrease in thymic weight at both dosages
[3]; 1.0 mg/kg ip daily 6 days
  B cells Change (% peptide treated/% control): 1.0
  Splenic lymphocytes: B cells (%): 52.4 ± 1.71%
  Splenic lymphocytes: T cells (%): 34.8 ± 2.5%
  T cells Change (% peptide treated/% control): ↓ 0.9
  Spleen: 88.4 ± 4.4 mg
  Thymus: 14.1 ± 1.3 mg
[3]; macrophages from treated animals
  Increase in NBT reducing activity on induction with complement-opsonized zymosan: 1.75 fold and 2 fold
[3]; 0.01 mg/kg
  NBT Reduction, Induced: 0.205 ± 0.012 OD540
  NBT Reduction, Spontaneous: 0.101 ± 0.002 OD540
  Neutral Red Uptake Absorbance: 0.604 ± 0.031
[3]; 1 mg/kg
  NBT Reduction, Induced: 0.116 ± 0.008 OD540
  NBT Reduction, Spontaneous: 0.059 ± 0.003 OD540
  Neutral Red Uptake Absorbance: 0.469 ± 0.016
Chronic prostatitis; After L-Glu-L-Trp, pre-treatment value Decreased (n = 2)
  IgG: 7.8 ± 1.1 g/L
Chronic prostatitis; After L-Glu-L-Trp, pre-treatment value Decreased (n = 5)
  Phagocytes (% of PBL): 36.6 ± 8.5 % of PBL
Chronic prostatitis; After L-Glu-L-Trp, pre-treatment value Decreased (n = 8)
  Imm. Cmplx.: 0.07 ± 0.01 units
Chronic prostatitis; After L-Glu-L-Trp, pre-treatment value Decreased (n = 10)
  B-Lymphocytes: 26.0 ± 2.9
Chronic prostatitis; [10]
  Complement (CH50): 34.2 ± 0.9
  T-Lymphocytes (%): 37.9 ± 2.2%
Chronic prostatitis; After L-Glu-L-Trp, pre-treatment value Increased (n = 1)
  IgM: 3.44 g/L
Chronic prostatitis; After L-Glu-L-Trp, pre-treatment value Increased (n = 2)
  T-Lymphocytes (%): 40.0 ± 15.5%
Chronic prostatitis; After L-Glu-L-Trp, pre-treatment value Increased (n = 6)
  IgG: 14.7 ± 1.4 g/L
Chronic prostatitis; After L-Glu-L-Trp, pre-treatment value Increased (n = 7)
  Complement (CH50): 30.7 ± 0.9
Chronic prostatitis; After L-Glu-L-Trp, pre-treatment value Increased (n = 8)
  B-Lymphocytes: 24.8 ± 2.9
Chronic prostatitis; After L-Glu-L-Trp, pre-treatment value Increased (n = 19)
  Imm. Cmplx.: 0.08 ± 0.01 units
Chronic prostatitis; After L-Glu-L-Trp, pre-treatment value Increased (n = 26)
  Phagocytes (% of PBL): 37.7 ± 3.9 % of PBL
Chronic prostatitis; After L-Glu-L-Trp, pre-treatment value Normal (n = 3)
  Phagocytes (% of PBL): 58.6 ± 18 % of PBL
Chronic prostatitis; After L-Glu-L-Trp, pre-treatment value Normal (n = 7)
  Imm. Cmplx.: 0.08 ± 0.01 units
Chronic prostatitis; After L-Glu-L-Trp, pre-treatment value Normal (n = 13)
  Complement (CH50): 29.3 ± 0.9
Chronic prostatitis; After L-Glu-L-Trp, pre-treatment value Normal (n = 16)
  B-Lymphocytes: 29.2 ± 2.2
Chronic prostatitis; After L-Glu-L-Trp, pre-treatment value Normal (n = 18)
  T-Lymphocytes (%): 50.0 ± 3.6%
Chronic prostatitis; After L-Glu-L-Trp, pre-treatment value Normal (n = 26)
  IgG: 12.5 ± 0.7 g/L
Chronic prostatitis; After L-Glu-L-Trp, pre-treatment value Normal (n = 33)
  IgM: 2.08 ± 0.12 g/L
Chronic prostatitis; After L-Glu-L-Trp, pre-treatment value Normal (n = 34)
  IgA: 2.2 ± 0.12 g/L
Chronic prostatitis; Group 1
  “Unsatisfactory” results: No “unsatisfactory” results were recorded
Chronic prostatitis; [11]
  B-Lymphocytes: % of PBL: 27.2 ± 1.4 % of PBL
  B-Lymphocytes: No.: 0.54 ± 0.1 10^9/L
  Complement (CH50): 29.4 ± 0.5
  IgA: 2.2 ± 0.1 g/L
  IgG: 12.5 ± 0.6 g/L
  IgM: 2.1 ± 0.1 g/L
  Immune Complexes: 0.80 ± 0.004 units
  Phagocytes: % PBL: 39.4 ± 3.5 % PBL
  T-Lymphocytes: % of Lym: 44.4 ± 2.3 % of Lym
  T-Lymphocytes: No.: 0.88 ± 0.1 10^9/L
[4]
  Clinical outcome: milder course of respiratory viral infections
influenza
  Clinical outcome: significantly decreased the incidence of sickness in the vaccinated subjects for a period of 12 months
[5]; 1 μg/kg
  Increase of frequency of PFC per 10^6 splenocytes: 2.8 fold
  Increase of number of PFC in spleen over saline control: 2.7 fold
  PFC/10^6 splenocytes: 69.2 ± 11.3
  PFC/Spleen: 11722 ± 2005
  Spleen weight/Body weight: 0.42 ± 0.01
  Splenocytes per Spleen: 168.6 ± 3.6 ×10^6
[5]; 10 μg/kg
  PFCs per spleen vs saline control: 1.8 fold
  PFC/10^6 splenocytes: 48.8 ± 9
  PFC/Spleen: 7854 ± 1631
  Spleen weight/Body weight: 0.43 ± 0.01
  Splenocytes per Spleen: 159 ± 8.5 ×10^6
[5]; 100 μg/kg
  PFCs per spleen vs saline control: 1.6 fold
  PFC/10^6 splenocytes: 41.7 ± 6
  PFC/Spleen: 6731 ± 1027
  Spleen weight/Body weight: 0.44 ± 0.02
  Splenocytes per Spleen: 162.6 ± 6 ×10^6
Influenza A
  Increase in T-helper Cells Percentage: 17%
  Length of Required Therapy: 7.1 ± 0.3 days
  Pharyngitis manifestations: 3.6 ± 0.3 days
  Secondary (Pneumonia) Complications: 4.0%
  T-helper/T-suppressor Ratio: 2.7
  Tracheitis manifestations: 3.6 ± 0.3 days
